The source of these data is ChEMBL document CHEMBL1201862, “PubChem BioAssay data set” (2004).

Among the test systems are OVCAR-3; SF-268; A498; TK-10; NCI/ADR-RES; OVCAR-4; HL-60; SNB-75; Hs-578T; UACC-257; SF-539; M14; SK-OV-3; HCT-15; Malme-3M; U-251; HCT-116; SN12C; HOP-92.
What all share (assay): inhibition of tumour cell growth, NCI panel, 48 h

The structures appear in SMILES notation.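 Method: 48-hour compound exposure of cells in 96-well plates, five concentrations, linear interpolation of endpoints. GI50 = concentration required for 50% inhibition of growth.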 Calls of active or inactive are those of the source. Rule as the data show it: active = GI50 up to about 1.1 µM and inactive = higher. Bounds are passed on as bounds.

In the case of `C=CC[C@@]1(C(=O)OC)[C@H](Sc2ccccc2)C1(C)C`, the GI50 in the assay on OVCAR-3 was 44.3 µM (inactive); with SF-268 it was 85.5 µM (inactive); in the assay on A498, 31.3 µM (inactive); in the assay with TK-10, > 100 µM (inactive); in the assay with NCI/ADR-RES it was 44.9 µM (inactive); in the assay with OVCAR-4 it was 43.7 µM (inactive). Moreover, the GI50 is 16.2 µM (inactive) with HL-60; 21.8 µM (inactive) in the assay with SNB-75; 55.6 µM (inactive) in the assay on Hs-578T; 34 µM (inactive) in the assay on UACC-257; 35.3 µM (inactive) in the assay with SF-539; 56.8 µM (inactive) in the assay with M14. Also, the GI50 in the assay on SK-OV-3 was > 100 µM (inactive); in the assay on HCT-15 it was 31 µM; with Malme-3M it was 29.4 µM (inactive); with U-251 it was 49.2 µM (inactive); with HCT-116, 23.6 µM (inactive); in the assay with SN12C, 21.1 µM (inactive). For the same molecule, the GI50 in the assay with HOP-92 was 13.8 µM (inactive).

Take `c1ccc2c(c1)NC(C1OC3CCCN3C1C1Nc3ccccc3S1)S2` (stereo not given): the GI50 in the assay on OVCAR-3 is 46.5 µM (inactive); with SF-268 it was > 100 µM (inactive); in the assay with A498, > 100 µM (inactive); in the assay with TK-10 it was > 100 µM (inactive); with OVCAR-4 it was 63.4 µM (inactive); in the assay with HL-60, 20.6 µM (inactive). Also, the GI50 is 69.7 µM (inactive) in the assay with SNB-75; > 100 µM (inactive) in the assay with Hs-578T; 48.3 µM (inactive) in the assay with UACC-257; > 100 µM (inactive) in the assay with SF-539; > 100 µM (inactive) in the assay on M14; > 100 µM (inactive) with SK-OV-3. Also, the GI50 in the assay on HCT-15 is 48.9 µM; with Malme-3M, > 100 µM (inactive); in the assay on U-251, 80.2 µM (inactive); in the assay on HCT-116 it was 55.3 µM (inactive); in the assay with SN12C, > 100 µM (inactive); with HOP-92, > 100 µM (inactive).

Turning to `O=C1c2ccccc2-c2nc(/C=C/c3ccccc3)cc3c2c1nc1ccccc13`, the GI50 in the assay with OVCAR-3 is 0.265 µM (active); in the assay on SF-268 it was 65 µM (inactive); in the assay on A498 it was 60.1 µM (inactive); in the assay on TK-10, 81.8 µM (inactive); with NCI/ADR-RES, 33.8 µM (inactive); in the assay on OVCAR-4, 68.7 µM (inactive). In addition, the GI50 was 17.8 µM (inactive) in the assay with SNB-75; 12.3 µM (inactive) in the assay with Hs-578T; 89.5 µM (inactive) with UACC-257; 27.4 µM (inactive) in the assay with SF-539; 26.2 µM (inactive) in the assay on M14; 34.1 µM (inactive) with SK-OV-3. Also, the GI50 is 2.52 µM in the assay with HCT-15; 17.7 µM (inactive) in the assay on U-251; 17.4 µM (inactive) in the assay with HCT-116; 33.2 µM (inactive) with SN12C; 26.5 µM (inactive) in the assay on HOP-92.

For the molecule `CCCCCCCCCC[C@@H](O)[C@@H]1CC[C@@H]([C@@H]2CC[C@@H]([C@@H](O)CCCCCCCCCCC(O)CC3=CC(C)OC3=O)O2)O1` (stereo not given in full), the GI50 with SF-268 is > 10 µM (inactive); in the assay on A498 it was 5.61 µM (inactive); in the assay with TK-10, > 10 µM (inactive); in the assay with NCI/ADR-RES, 0.729 µM (active); in the assay on OVCAR-4, 1.38 µM (inactive); in the assay with HL-60 it was 0.116 µM (active). Further, the GI50 was > 10 µM (inactive) with SNB-75; > 10 µM (inactive) in the assay on Hs-578T; 2.42 µM (inactive) in the assay with UACC-257; > 10 µM (inactive) in the assay with SF-539; > 10 µM (inactive) in the assay with M14; > 10 µM (inactive) in the assay with SK-OV-3. The GI50 with HCT-15 was 5.89 µM; in the assay with Malme-3M it was 1.81 µM (inactive); in the assay with HCT-116, 0.551 µM (active); in the assay with SN12C it was > 10 µM (inactive).
